Results published in US7521459B2, “Method for treating damaged skin” (Metabeauty Inc., priority 2003, dated 2009).

Columns and labels:
Patient A skin = experiment: Daily topical application of a 5% imiquimod composition to Patient A skin, visual inspection; format: in vivo, human; conditions: after 8 weeks of daily application
Description: In a first example of a method of the invention, a 5% imiquimod composition is applied to Patient A skin.
(§1) One skilled in the art is familiar with many methods and techniques for evaluating or monitoring changes in the skin. […] For example, changes in pigmentation, texture, and the presence of wrinkles or fine lines can all be monitored through visual assessment. In addition, a mexameter can be used to measure skin pigment, a tewameter and/or evaporometer can be used to measure water content, a laser doppler device can measure blood flow, and a visioscan or optical profilometer can measure surface texture, wrinkles, and/or roughness. Any one or any combination of these methods can be used, in particular, to measure, monitor, or detect changes in fine wrinkles, mottled hyperpigmentation, tactile roughness, lentigines, course or deep wrinkles, telangiectasia, skin laxity, keratinocytic atypia, melanocytic atypia, and/or dermal elastosis. Thus, the methods and composition of the invention can be used to treat and/or to evaluate possible treatment compositions where any one of these diseases or conditions are present or may be present.

[1] = test system: entire face (precancerous lesions and normal, photodamaged skin); experiment: Daily application of a pea size aliquot of 5% imiquimod to the entire face of Patient B; format: in vivo, human; conditions: pea size aliquot of 5% imiquimod every day to the entire face
Method: as §1, with “In a further example of a method of the invention, Patient B is treated with a pea size aliquot of 5% imiquimod every day to the entire face. […] One” for “One”, “elastosis.” for “elastosis. Thus, the methods and composition of the invention can be used to treat and/or to evaluate possible treatment compositions where any one of these diseases or conditions are present or may be present.”

## CC(C)Cn1cnc2c(N)nc3ccccc3c21 [imiquimod, 1-isobutyl-1H-imidazo [4,5,-C] quinolin-4-amine]
Patient A skin
  appearance of clinical wrinkles by visual inspection: decreases
  general skin appearance: generally improved and healthier appearance
  most noticeable improvement: pigmentation and texture
[1]
  appearance of non-precancerous skin (normal, photodamaged skin): looks smoother, with more regular pigmentation, and improvement of the fine wrinkles
  irritation of non-precancerous skin (normal, photodamaged skin): does not become irritated
[1]; biopsy shows BCC in precancerous regions
  reaction of areas of the skin with precancerous lesions on the nose: became very red, eroded and irritated
